Values of other authors, collected in US20130150323A1, “USE OF ORAL HEPARIN PREPARATIONS TO TREAT URINARY TRACT DISEASES AND CONDITIONS” (Urigen Pharmaceuticals, Inc, priority 2010, published 2013).
Like-named read-outs stand apart in the source and are kept apart here.

Key:
IC patients [1] = settings: intravesical
[2] = system: bladder mucus layer of normal human volunteers; settings: intravesically administered; 0.4 M potassium solution
[3] = system: interstitial cystitis patients; settings: oral, double blind studies, 16% on placebo
[4] = oral
IC patients [5] = settings: intravesical instillations

Compound: O=S(=O)(O)CCS [Mesnex, mesna]
- frequency of adverse events (all AEs) (cancer patients; IV): 85%
- frequency of adverse events (all AEs) (cancer patients; oral): 89%

Compound: heparin
- patients treated in whom effective (IC patients [1]): approximately 50%
- effect on protamine chemical injury of mucus layer (potassium absorption, urgency and pain) [2]: reversed

Compound: pentosanpolysulfate
- good response, patients on active drug [3]: 34%
- availability of this drug orally [4]: 2-3%

Compound: C[S+](C)[O-] [DMSO, dimethylsulfoxide]
- IC patients treated with benefit (IC patients [5]): ~50%
